# Assay results taken from article PMC11696576, “Next generation thiazolyl ketone inhibitors of cytosolic phospholipase A2 α for targeted cancer therapy” (Nature Communications, 2025).
# Values joined by “and” are separate entries in the source; they are usually repeats but may differ in a detail not shown here. Equal values may be shown once.
# Tested on: SW982 synoviocytes
# Test: cellular arachidonic acid (AA) release assay, IL-1β stimulated
# Format: cell-based, human
# Conditions: 0.2 µM, individual biological replicate
# Text: To test the inhibitory activity of the compounds in cells, we measured their effect on the release of AA from synoviocytes stimulated with IL-1β (Table 2). […] Combined with favorable selectivity and stability it was thus chosen for further evaluation. We looked specifically at how it modulated eicosanoid levels in response to stimulation both in whole blood and in isolated peripheral blood mononuclear cells (PBMCs) and checked for off-target effects on AA metabolism in whole blood by also measuring the effect of GK420 on eicosanoid release in the presence of exogenous free AA.
# The human synovial sarcoma cell line SW982 (ATCC, London, UK) was used to measure AA release. The cells were maintained in Dulbecco’s Modified Eagle Medium (DMEM) supplemented with 10% FBS, 0.1 mg/mL gentamicin, and 0.3 mg/mL L-glutamine at 37 °C with 10% CO2, and experiments were performed at 3 days post-confluence. To measure AA release, the cells were labeled overnight with ^3H-AA (0.4 μCi/mL) in serum-free DMEM and then washed twice with PBS containing fBSA (2 mg/mL) to remove unincorporated radioactivity. The inhibitors, or DMSO vehicle control, were subsequently added to the cells for 1 hour prior to stimulation with 10 ng/mL IL-1β for 4 h. Supernatants were collected and centrifuged at 300 × g for 5 min to clear them of detached cells and adherent cells were dissolved in 1 N NaOH. The ^3H-AA was assessed by liquid scintillation counting (LS 6500 Multi-Purpose Scintillation Counter, Beckman Coulter, Inc., USA) and the results are given as the inhibition of released ^3H-AA in the supernatants relative to total ^3H-AA incorporated into the cells, as described. EC50 values were calculated by fitting the % inhibition data to a three-parameter dose-response curve in GraphPad prism v10.4.0. Experiments were performed in technical triplicates and repeated at least three times.
row,Structure (SMILES),% inhibition of stimulated AA release
1,CCCCCCCCc1ccc(OCC(=O)c2nc(C(=O)OCC)cs2)cc1 [GK401],23.49% and 44.31% and 23.09% and 42.93%
2,CCCCCCCCc1ccc(OC(C)C(=O)c2nc(C(=O)OC)cs2)cc1 (stereo not shown) [GK402],6.56% and 7.69% and 18.19%
3,COC(=O)c1csc(C(=O)COc2ccc(Oc3ccccc3)cc2)n1 [GK403],11.19% and -0.79% and 22.56% and 22.92%

# Same assay, conditions: 1 µM, individual biological replicate
row,Structure (SMILES),% inhibition of stimulated AA release
1,CCCCCCCCc1ccc(OCC(=O)c2nc(C(=O)OCC)cs2)cc1 [GK401],46.19% and 56.11% and 60.73%
2,CCCCCCCCc1ccc(OC(C)C(=O)c2nc(C(=O)OC)cs2)cc1 (stereo not shown) [GK402],17.63% and 31.62%
3,COC(=O)c1csc(C(=O)COc2ccc(Oc3ccccc3)cc2)n1 [GK403],71.06% and 44.35% and 48.83% and 61.77%

# Same assay, conditions: 5 µM, individual biological replicate
row,Structure (SMILES),% inhibition of stimulated AA release
1,CCCCCCCCc1ccc(OCC(=O)c2nc(C(=O)OCC)cs2)cc1 [GK401],83.12% and 89.8% and 99.4%
2,CCCCCCCCc1ccc(OC(C)C(=O)c2nc(C(=O)OC)cs2)cc1 (stereo not shown) [GK402],31.01% and 44.57%
3,COC(=O)c1csc(C(=O)COc2ccc(Oc3ccccc3)cc2)n1 [GK403],83.19% and 96.79% and 91.92%

# Same assay, conditions: Homo sapiens, SW982, 1 µM, individual biological replicate; read-out: % inhibition of stimulated AA release
row,Structure (SMILES),inhibition at 1 µM [%]
1,CCCCCCCCc1ccc(OCC(=O)c2nc(C(=O)OCC)cs2)cc1 [GK401],49.8
2,CCCCCCCCc1ccc(OC(C)C(=O)c2nc(C(=O)OC)cs2)cc1 (stereo not shown) [GK402],18.5

# Same assay, conditions: Homo sapiens, SW982, 5 µM, individual biological replicate
row,Structure (SMILES),inhibition at 5 µM [%]
1,CCCCCCCCc1ccc(OCC(=O)c2nc(C(=O)OCC)cs2)cc1 [GK401],92.1
2,CCCCCCCCc1ccc(OC(C)C(=O)c2nc(C(=O)OC)cs2)cc1 (stereo not shown) [GK402],36.7
3,COC(=O)c1csc(C(=O)COc2ccc(Oc3ccccc3)cc2)n1 [GK403],101

# Same assay, conditions: Homo sapiens, SW982, 4 h, 1 µM inhibitor, IL-1β 4 h, mean ± stdev; read-out: AA release % Inhib
row,Structure (SMILES),inhibition at 1 µM [%]
1,CCCCCCCCc1ccc(OCC(=O)c2nc(C(=O)OCC)cs2)cc1 [GK401],53 ± 6
2,CCCCCCCCc1ccc(OC(C)C(=O)c2nc(C(=O)OC)cs2)cc1 (stereo not shown) [GK402],23 ± 8
3,COC(=O)c1csc(C(=O)COc2ccc(Oc3ccccc3)cc2)n1 [GK403],57 ± 12

# Same assay, conditions: Homo sapiens, SW982; IL-1β 4 h; 0.2, 1 or 5 µM inhibitor; read-out: AA release EC50 µM (95% CI)
row,EC50 [µM],Structure (SMILES)
1,0.63,CCCCCCCCc1ccc(OCC(=O)c2nc(C(=O)OCC)cs2)cc1 [GK401]
2,6.7,CCCCCCCCc1ccc(OC(C)C(=O)c2nc(C(=O)OC)cs2)cc1 (stereo not shown) [GK402]
3,0.79,COC(=O)c1csc(C(=O)COc2ccc(Oc3ccccc3)cc2)n1 [GK403]

# Same assay, conditions: Homo sapiens, SW982; [Agonist] vs. Response (three parameters); concentration in µM; read-out: logEC50 best-fit value, AA release (converted)
row,IC50 [µM],Structure (SMILES)
1,0.63,CCCCCCCCc1ccc(OCC(=O)c2nc(C(=O)OCC)cs2)cc1 [GK401]
2,6.7,CCCCCCCCc1ccc(OC(C)C(=O)c2nc(C(=O)OC)cs2)cc1 (stereo not shown) [GK402]
3,0.793,COC(=O)c1csc(C(=O)COc2ccc(Oc3ccccc3)cc2)n1 [GK403]

# Same assay, conditions: Homo sapiens, SW982; [Agonist] vs. Response (three parameters); read-out: EC50 best-fit value, AA release
row,EC50 [µM],Structure (SMILES)
1,0.63,CCCCCCCCc1ccc(OCC(=O)c2nc(C(=O)OCC)cs2)cc1 [GK401]
2,6.7,CCCCCCCCc1ccc(OC(C)C(=O)c2nc(C(=O)OC)cs2)cc1 (stereo not shown) [GK402]
3,0.793,COC(=O)c1csc(C(=O)COc2ccc(Oc3ccccc3)cc2)n1 [GK403]

# Tested on: not listed separately
# Test: stability in human plasma (LC-MS/MS)
# Format: in vitro ADME
# Conditions: % of the compound remaining after 4 h
# Protocol: The stability of the analogs in human plasma was studied over approximately 24 h by LC-MS/MS and the results at 4 h and the final timepoint (20–25 h) are included in Table 1.
# The metabolic stability of the compounds was determined through in vitro stability assays in human plasma. Solutions of compounds in DMSO (20 mM) were diluted to 5 μg/mL in 50% methanol for infusion into the MS/MS system and spiking of calibration standards and control samples. For the MS detection, positive ionization in ESI mode was used. Good sensitivity, retention and peak shaped were achieved using a gradient with 5 mM ammonium carbamate in water and ammonium carbamate in 90% acetonitrile on a reversed phase column (ACE3AQ). Calibration standards were spiked in a calibration range of 0.5–100 ng/ml. Control samples were spiked at, low, medium, and high concentration levels. The spiked plasma samples were prepared by protein precipitation using acetonitrile containing appropriate internal standard (IS). […] Samples were prepared for analysis by taking 50 μL of plasma sample and adding 100 μL of IS working solution in acetonitrile followed by vortexing at 2500 rpm (Multi-tube vortexer DVX-2500, Henry Troemner LLC, USA) for 2 min. The samples were centrifuged at 5300 rpm (Heraeus Megafuge 1.0 Heraeus, Germany) for 3 min and the supernatant transferred to the autosampler. Recovery was determined by comparing the prepared matrix samples (protein precipitation) with a direct sample (analytes spikes in 67% acetonitrile = injection solution) such that the recovery of the sample preparation and the matrix effects were determined together. Two or three samples were each measured in technical triplicates to give the final % recovery.
row,Stability in human plasma 4 h [%],Structure (SMILES)
1,69.3,CCCCCCCCc1ccc(OCC(=O)c2nc(C(=O)OCC)cs2)cc1 [GK401]
2,79.7,CCCCCCCCc1ccc(OC(C)C(=O)c2nc(C(=O)OC)cs2)cc1 (stereo not shown) [GK402]
3,21.5,COC(=O)c1csc(C(=O)COc2ccc(Oc3ccccc3)cc2)n1 [GK403]

# Same assay, conditions: % of the compound remaining after 25 h (¤)
row,Stability in human plasma 20+ h,Structure (SMILES)
1,16.25¤ %,CCCCCCCCc1ccc(OCC(=O)c2nc(C(=O)OCC)cs2)cc1 [GK401]
2,47.3¤ %,CCCCCCCCc1ccc(OC(C)C(=O)c2nc(C(=O)OC)cs2)cc1 (stereo not shown) [GK402]

# Same assay, conditions: individual sample, human plasma
plasma stability 4h (%),plasma stability 25h (%),Structure (SMILES)
65.9% and 74% and 67.2%,16.8% and 15.7%,CCCCCCCCc1ccc(OCC(=O)c2nc(C(=O)OCC)cs2)cc1 [GK401]
79.3% and 79.5% and 80.3%,47% and 46% and 48.8%,CCCCCCCCc1ccc(OC(C)C(=O)c2nc(C(=O)OC)cs2)cc1 (stereo not shown) [GK402]
32.3% and 10.6%,,COC(=O)c1csc(C(=O)COc2ccc(Oc3ccccc3)cc2)n1 [GK403]

# Molecular target: T1, recombinant human cPLA2α (Homo sapiens, UniProt P47712)
# T1 sequence (P47712 1-749): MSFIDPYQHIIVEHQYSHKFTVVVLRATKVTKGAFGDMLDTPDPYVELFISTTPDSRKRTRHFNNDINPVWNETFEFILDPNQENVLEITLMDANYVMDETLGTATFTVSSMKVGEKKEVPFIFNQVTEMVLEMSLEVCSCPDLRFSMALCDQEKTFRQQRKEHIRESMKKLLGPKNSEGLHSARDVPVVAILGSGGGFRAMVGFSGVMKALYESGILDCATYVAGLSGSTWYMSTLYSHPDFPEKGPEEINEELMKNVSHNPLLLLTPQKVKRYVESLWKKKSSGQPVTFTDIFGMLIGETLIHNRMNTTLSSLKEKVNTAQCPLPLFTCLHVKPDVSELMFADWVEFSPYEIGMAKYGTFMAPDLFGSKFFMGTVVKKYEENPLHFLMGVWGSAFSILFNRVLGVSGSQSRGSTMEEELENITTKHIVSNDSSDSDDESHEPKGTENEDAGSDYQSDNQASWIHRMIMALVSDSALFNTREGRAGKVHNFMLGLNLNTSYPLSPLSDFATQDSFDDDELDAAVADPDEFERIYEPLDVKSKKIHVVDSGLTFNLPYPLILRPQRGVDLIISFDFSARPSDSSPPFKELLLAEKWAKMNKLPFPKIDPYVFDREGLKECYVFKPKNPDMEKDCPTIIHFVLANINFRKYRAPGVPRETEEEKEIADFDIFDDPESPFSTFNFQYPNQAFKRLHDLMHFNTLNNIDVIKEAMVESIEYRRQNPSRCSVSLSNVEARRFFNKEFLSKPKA
# Test: radioactivity-based mixed micelle assay, cPLA2α
# Format: biochemical
# Conditions: 0.091 mole fraction; read-out: cPLA2α % Inhib
# Protocol: All synthesized thiazolyl ketones were tested for their in vitro inhibitory activity on recombinant human cPLA2α and selectivity over human calcium-independent GVIA iPLA2 and secreted GV sPLA2 using our previously described group-specific radioactivity-based mixed micelle assays. The inhibition results are presented either as per cent inhibition or as XI(50) values in Table 1. […] The XI(50) is defined as the mole fraction of the inhibitor in the total substrate interface required to inhibit the enzyme activity by 50%. For comparison purposes, previously published data for the inhibitor GK470[19] are included. […] Inhibitors were initially screened at 0.091 mol fraction (5 μL of 5 mM inhibitor in DMSO) in substrate (495 μL) in technical triplicates. […] The XI(50) value and stdev values reported are for the entire curve. This analysis was performed in GraphPad Prism v6.
row,inhibition at 0.091 mole fraction [%],Structure (SMILES)
1,89,CCCCCCCCc1ccc(OCC(=O)c2nc(C(=O)OCC)cs2)cc1 [GK401]
2,79,CCCCCCCCc1ccc(OC(C)C(=O)c2nc(C(=O)OC)cs2)cc1 (stereo not shown) [GK402]
3,95,COC(=O)c1csc(C(=O)COc2ccc(Oc3ccccc3)cc2)n1 [GK403]

# Same assay, conditions: XI(50) ± stdev; mole fraction of inhibitor in total substrate interface for 50% inhibition
row,Structure (SMILES),cPLA2α XI(50)
1,COC(=O)c1csc(C(=O)COc2ccc(Oc3ccccc3)cc2)n1 [GK403],0.0014 mole fraction and 0.0014 ± 0.0001 mole fraction

# Same assay, conditions: average of triplicates
row,"cPLA2 % inhibition at 0.091 mole fraction, average [%]",Structure (SMILES)
1,88.7,CCCCCCCCc1ccc(OCC(=O)c2nc(C(=O)OCC)cs2)cc1 [GK401]
2,79.2,CCCCCCCCc1ccc(OC(C)C(=O)c2nc(C(=O)OC)cs2)cc1 (stereo not shown) [GK402]
3,95.4,COC(=O)c1csc(C(=O)COc2ccc(Oc3ccccc3)cc2)n1 [GK403]

# Same assay, conditions: individual technical replicate; read-out: cPLA2 % inhibition at 0.091 mole fraction
row,inhibition at 0.091 mole fraction [%],Structure (SMILES)
1,88.4,CCCCCCCCc1ccc(OCC(=O)c2nc(C(=O)OCC)cs2)cc1 [GK401]
2,81,CCCCCCCCc1ccc(OC(C)C(=O)c2nc(C(=O)OC)cs2)cc1 (stereo not shown) [GK402]
3,95.1,COC(=O)c1csc(C(=O)COc2ccc(Oc3ccccc3)cc2)n1 [GK403]
